Test results published in paper PMC10434283, “A Novel Two-Component Bacteriocin, Acidicin P, and Its Key Residues for Inhibiting Listeria monocytogenes by Targeting the Cell Membrane” (Microbiology Spectrum, 2023).

Assays:
L. monocytogenes = assay: Agar well diffusion assay of the mutations; assay type: cell-based, Listeria monocytogenes; conditions: BHI agar, 10^5 CFU/mL, 40 μL peptide per well, 24 h at 30°C
Source text: (§1) The antimicrobial spectrum was investigated using the indicator strains Streptococcus agalactiae 10465, Listeria monocytogenes 1.10753, enterotoxigenic Escherichia coli K88, vancomycin-resistant Enterococcus faecalis V583, Salmonella enterica serovar Typhimurium 14028, methicillin-resistant Staphylococcus aureus, and Bacillus cereus 1.1846. L. monocytogenes 1.10753 was used for growth curve measurement with a microtiter plate assay system. The indicator (at 1 × 10^5 CFU/mL) and the peptide (at 2-fold dilutions) were added to a final volume of 200 μL in each well. The bacterial growth was monitored with Bioscreen C (OyGrowth Curves Ab Ltd.) at 600 nm at 30°C. The MIC was defined as the total amount of Adpα, Adpβ, and acidicin P (the complementary peptides combined with equal amounts) that inhibited the growth of the indicator strain. The agar well diffusion method was used to investigate the antimicrobial activity of the mutations. The L. monocytogenes was inoculated in a brain heart infusion (BHI) agar plate as an indicator at a concentration of 10^5 CFU/mL. The peptide mutants (40 μL) were added to the wells (5 mm), and the plates were incubated for 24 h at 30°C.

[1] = system: L. monocytogenes cell membrane; assay: Cytoplasmic membrane permeability assay with propidium iodide; assay type: cell-based, Listeria monocytogenes; conditions: positive control, 1× MIC
Description: Pretreatment of L. monocytogenes cells for the cytoplasmic membrane permeability assay was similar to that for the PMF assay. The cells were resuspended in 1 mL PBS and treated with different concentrations of acidicin P at 30°C for 30 min. The treated cells were stained with 10 μg/mL propidium iodide (PI, Bioss) in the dark for 15 min. Emission spectra of the mixture were recorded at 615 nm upon excitation at 535 nm with a Synergy H4 device (BioTek).

[2] = system: Listeria monocytogenes 1.10753; assay: MIC by microtiter plate growth curve assay; assay type: cell-based; conditions: for growth rate of L. monocytogenes: peptide individually, at any concentration; for MIC: microtiter growth curve, 1 × 10^5 CFU/mL, 30°C, 600 nm
Source text: as §1

| Substance | antimicrobial activity compared to the wild type (L. monocytogenes) | also measured |
| --- | --- | --- |
| ANKMAYNVGKAISRIMRRVR [R1A (Adpα)-D12A (Adpβ), acidicin P mutant pair] | no detrimental effect |  |
| RNKMAYNVGKAISAIMRRVR [R14A (Adpα)-D12A (Adpβ), acidicin P mutant pair: Adpα R14A with Adpβ D12A] | significantly decreased |  |
| RNKMAYNVGKAISRIMRAVR [R18A (Adpα)-K2A (Adpβ), acidicin P mutant pair: Adpα R18A with Adpβ K2A] | no detrimental effect |  |
| RNKMIYNVIKAISRIMRRVR [A5I//G9I (Adpα)-S16I//G20I (Adpβ), acidicin P mutant pair: Adpα A5I, G9I with Adpβ S16I, G20I] | significantly decreased | bactericidal zone (L. monocytogenes): no bactericidal zone was observed |
| nisin |  | PI fluorescence versus untreated cells [1]: higher fluorescence |
| RNKMAYAVGKAISRIMRRVR [N7A (Adpα)-S16A//R19A (Adpβ), acidicin P mutant pair: Adpα N7A with Adpβ S16A, R19A] | significantly decreased |  |
| RNKMAYAVGKAISAIMRRVR [N7A//R14A (Adpα)-D12A//S16A//R19A (Adpβ), acidicin P mutant pair: Adpα N7A, R14A with Adpβ D12A, S16A, R19A] | significantly decreased |  |
| RNKMAYNVGKAISRIMRRVR [Adpα, 20-residue mature α peptide of the two-component bacteriocin acidicin P, obtained by solid-phase peptide synthesis] |  | growth rate of L. monocytogenes [2]: not affected; MIC ([2]; ratio α:β 1:0 (Adpα alone)): / (No antimicrobial activity observed in the range of 1.56 to 200 μg/mL acidicin P) |
| KKKRGFWYHVGDAVTSFGRGFASAFG [Adpβ, 26-residue mature β peptide of the two-component bacteriocin acidicin P, obtained by solid-phase peptide synthesis] |  | growth rate of L. monocytogenes [2]: not affected; MIC ([2]; ratio α:β 0:1 (Adpβ alone)): / (No antimicrobial activity observed in the range of 1.56 to 200 μg/mL acidicin P) |
